According to PubChem BioAssay (NCI):
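Cultured in 96-well plates, cells were exposed to test compound for 48 hours across five concentrations. The concentration for 50% growth inhibition is given as GI50. At the TGI there is no net growth.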

Experiments:
Test in all cases: growth of human tumour cells (NCI), 48 h
786-0 renal = test system: 786-0 renal
A498 renal = test system: A498 renal
A549 NSCLC = test system: A549 NSCLC
ACHN renal = test system: ACHN renal
BT-549 breast = test system: BT-549 breast
CAKI-1 renal = test system: CAKI-1 renal
CCRF-CEM leukemia = test system: CCRF-CEM leukemia
COLO 205 colon = test system: COLO 205 colon
DU-145 prostate = test system: DU-145 prostate
EKVX NSCLC = test system: EKVX NSCLC
HCC-2998 colon = test system: HCC-2998 colon
HCT-116 colon = test system: HCT-116 colon
HCT-15 colon = test system: HCT-15 colon
HL-60(TB) leukemia = test system: HL-60(TB) leukemia
HOP-62 NSCLC = test system: HOP-62 NSCLC
HOP-92 NSCLC = test system: HOP-92 NSCLC
HS 578T breast = test system: HS 578T breast
HT29 colon = test system: HT29 colon
IGROV1 ovarian = test system: IGROV1 ovarian
K-562 leukemia = test system: K-562 leukemia
KM12 colon = test system: KM12 colon
LOX IMVI melanoma = test system: LOX IMVI melanoma
M14 melanoma = test system: M14 melanoma
MALME-3M melanoma = test system: MALME-3M melanoma
MCF7 breast = test system: MCF7 breast
MDA-MB-231 breast = test system: MDA-MB-231 breast
MDA-MB-435 = test system: MDA-MB-435
MDA-MB-468 breast = test system: MDA-MB-468 breast
MOLT-4 leukemia = test system: MOLT-4 leukemia
NCI-H226 lung = test system: NCI-H226 lung
NCI-H23 lung = test system: NCI-H23 lung
NCI-H460 lung = test system: NCI-H460 lung
NCI-H522 lung = test system: NCI-H522 lung
NCI/ADR-RES ovarian = test system: NCI/ADR-RES ovarian
OVCAR-3 ovarian = test system: OVCAR-3 ovarian
OVCAR-4 ovarian = test system: OVCAR-4 ovarian
OVCAR-5 ovarian = test system: OVCAR-5 ovarian
OVCAR-8 ovarian = test system: OVCAR-8 ovarian
PC-3 prostate = test system: PC-3 prostate
RPMI-8226 leukemia = test system: RPMI-8226 leukemia
RXF 393 renal = test system: RXF 393 renal
SF-268 CNS = test system: SF-268 CNS
SF-295 CNS = test system: SF-295 CNS
SF-539 CNS = test system: SF-539 CNS
SK-MEL-2 melanoma = test system: SK-MEL-2 melanoma
SK-MEL-28 melanoma = test system: SK-MEL-28 melanoma
SK-MEL-5 melanoma = test system: SK-MEL-5 melanoma
SK-OV-3 ovarian = test system: SK-OV-3 ovarian
SN12C renal = test system: SN12C renal
SNB-19 CNS = test system: SNB-19 CNS
SNB-75 CNS = test system: SNB-75 CNS
SR leukemia = test system: SR leukemia
SW-620 colon = test system: SW-620 colon
T-47D breast = test system: T-47D breast
TK-10 renal = test system: TK-10 renal
U251 CNS = test system: U251 CNS
UACC-257 melanoma = test system: UACC-257 melanoma
UACC-62 melanoma = test system: UACC-62 melanoma
UO-31 renal = test system: UO-31 renal

SMILES: C/C(=N\N=C1/C(=O)Nc2ccc(Cl)cc21)c1ccc2c(c1)Nc1ccccc1S2
- GI50 (786-0 renal): 2.4 µM
- TGI (786-0 renal): 5.86 µM
- GI50 (A498 renal): 5.89 µM
- TGI (A498 renal): 18.7 µM
- GI50 (A549 NSCLC): 4.21 µM
- TGI (A549 NSCLC): 17.8 µM
- GI50 (ACHN renal): 3.55 µM
- TGI (ACHN renal): 14.1 µM
- GI50 (BT-549 breast): 3.47 µM
- TGI (BT-549 breast): 12.3 µM
- GI50 (CAKI-1 renal): 4.42 µM
- TGI (CAKI-1 renal): 17.9 µM
- GI50 (CCRF-CEM leukemia): 3.42 µM
- TGI (CCRF-CEM leukemia): 98.5 µM
- GI50 (COLO 205 colon): 4.84 µM
- TGI (COLO 205 colon): 17.2 µM
- GI50 (DU-145 prostate): 4.64 µM
- TGI (DU-145 prostate): 18 µM
- GI50 (EKVX NSCLC): 4.68 µM
- TGI (EKVX NSCLC): 22.9 µM
- GI50 (HCC-2998 colon): 7.54 µM
- TGI (HCC-2998 colon): 22.5 µM
- GI50 (HCT-116 colon): 4.6 µM
- TGI (HCT-116 colon): 19 µM
- GI50 (HCT-15 colon): 6.61 µM
- TGI (HCT-15 colon): 24 µM
- GI50 (HL-60(TB) leukemia): 6.21 µM
- TGI (HL-60(TB) leukemia): > 100 µM
- GI50 (HOP-62 NSCLC): 12.5 µM
- TGI (HOP-62 NSCLC): 27.8 µM
- GI50 (HOP-92 NSCLC): 2.92 µM
- TGI (HOP-92 NSCLC): 11.3 µM
- GI50 (HS 578T breast): 6.86 µM
- TGI (HS 578T breast): 41.1 µM
- GI50 (HT29 colon): 4.54 µM
- TGI (HT29 colon): 17.6 µM
- GI50 (IGROV1 ovarian): 5.62 µM
- TGI (IGROV1 ovarian): 23.1 µM
- GI50 (K-562 leukemia): 4.14 µM
- TGI (K-562 leukemia): > 100 µM
- GI50 (KM12 colon): 3.51 µM
- TGI (KM12 colon): 14.1 µM
- GI50 (LOX IMVI melanoma): 5.77 µM
- TGI (LOX IMVI melanoma): 18.7 µM
- GI50 (M14 melanoma): 7.35 µM
- TGI (M14 melanoma): 23.3 µM
- GI50 (MALME-3M melanoma): 7.44 µM
- TGI (MALME-3M melanoma): 21.5 µM
- GI50 (MCF7 breast): 3.33 µM
- TGI (MCF7 breast): 13.5 µM
- GI50 (MDA-MB-231 breast): 8.23 µM
- TGI (MDA-MB-231 breast): 21.9 µM
- GI50 (MDA-MB-435): 3.27 µM
- TGI (MDA-MB-435): 15.5 µM
- GI50 (MDA-MB-468 breast): 1.8 µM
- TGI (MDA-MB-468 breast): 7.31 µM
- GI50 (MOLT-4 leukemia): 2.71 µM
- TGI (MOLT-4 leukemia): 8.28 µM
- GI50 (NCI-H226 lung): 3.49 µM
- TGI (NCI-H226 lung): 19.7 µM
- GI50 (NCI-H23 lung): 7.3 µM
- TGI (NCI-H23 lung): 21.7 µM
- GI50 (NCI-H460 lung): 3.17 µM
- TGI (NCI-H460 lung): 10.3 µM
- GI50 (NCI-H522 lung): 3.22 µM
- TGI (NCI-H522 lung): 15.3 µM
- GI50 (NCI/ADR-RES ovarian): 4.74 µM
- TGI (NCI/ADR-RES ovarian): 24.6 µM
- GI50 (OVCAR-3 ovarian): 10.2 µM
- TGI (OVCAR-3 ovarian): 23.4 µM
- GI50 (OVCAR-4 ovarian): 4.67 µM
- TGI (OVCAR-4 ovarian): 22.5 µM
- GI50 (OVCAR-5 ovarian): 10.1 µM
- TGI (OVCAR-5 ovarian): 26.2 µM
- GI50 (OVCAR-8 ovarian): 4.2 µM
- TGI (OVCAR-8 ovarian): 17.9 µM
- GI50 (PC-3 prostate): 3.14 µM
- TGI (PC-3 prostate): 16.3 µM
- GI50 (RPMI-8226 leukemia): 5.86 µM
- TGI (RPMI-8226 leukemia): 99.6 µM
- GI50 (RXF 393 renal): 5.05 µM
- TGI (RXF 393 renal): 19 µM
- GI50 (SF-268 CNS): 8.19 µM
- TGI (SF-268 CNS): 26.5 µM
- GI50 (SF-295 CNS): 4.08 µM
- TGI (SF-295 CNS): 17 µM
- GI50 (SF-539 CNS): 6.83 µM
- TGI (SF-539 CNS): 19.8 µM
- GI50 (SK-MEL-2 melanoma): 6.77 µM
- TGI (SK-MEL-2 melanoma): 20.8 µM
- GI50 (SK-MEL-28 melanoma): 6.23 µM
- TGI (SK-MEL-28 melanoma): 22.8 µM
- GI50 (SK-MEL-5 melanoma): 3.8 µM
- TGI (SK-MEL-5 melanoma): 14.4 µM
- GI50 (SK-OV-3 ovarian): 11.9 µM
- TGI (SK-OV-3 ovarian): 30.7 µM
- GI50 (SN12C renal): 4.47 µM
- TGI (SN12C renal): 16.8 µM
- GI50 (SNB-19 CNS): 11.9 µM
- TGI (SNB-19 CNS): 33.1 µM
- GI50 (SNB-75 CNS): 4.28 µM
- TGI (SNB-75 CNS): 19.4 µM
- GI50 (SR leukemia): 4.4 µM
- TGI (SR leukemia): 56.8 µM
- GI50 (SW-620 colon): 5.56 µM
- TGI (SW-620 colon): 20.1 µM
- GI50 (T-47D breast): 2.54 µM
- TGI (T-47D breast): 12.8 µM
- GI50 (TK-10 renal): 7.07 µM
- TGI (TK-10 renal): 23.7 µM
- GI50 (U251 CNS): 5.62 µM
- TGI (U251 CNS): 18.4 µM
- GI50 (UACC-257 melanoma): 4.07 µM
- TGI (UACC-257 melanoma): 18.1 µM
- GI50 (UACC-62 melanoma): 4.2 µM
- TGI (UACC-62 melanoma): 17.1 µM
- GI50 (UO-31 renal): 4.05 µM
- TGI (UO-31 renal): 19.6 µM
